A melting point compilation (Tetko et al.; mined from patent text by program, amines drawn as free bases though some values may be those of a salt)

SMILES	melting point
COc1cc(N)c(Cl)cc1C(=O)NCC1CCN(CCCCCSc2ccccc2)CC1	143 to 144 °C
Cc1c(S(C)(=O)=O)c2ccccc2n1CC1=NCCN1	187 to 188 °C
O=C(O)C1CCc2[nH]c3cc(Cl)c(Cl)cc3c2C1 (centres undefined)	243 to 244 °C
O=C1C(=O)N(Cc2ccc(C(F)(F)F)o2)c2cccc(Cl)c21	148 to 150 °C
Nc1ccc(F)cc1CCN1CCN(c2nsc3ccccc23)CC1	115 °C
C=C(Oc1cc(-n2c(=O)cc(C(F)(F)F)n(N)c2=O)c(F)cc1Cl)C(=O)OC	66 °C
O=C(Nc1cc(C(F)(F)F)cc(C(F)(F)F)c1)c1cc(Cl)cnc1O	> 270 °C
NS(=O)(=O)c1cnc(-c2cn(-c3cc(C(F)(F)F)cc(-c4ccc(C(F)(F)F)cc4)n3)cn2)s1	> 266 °C
Cc1cc(C)c(NC(=O)N(O)C(C)C)cc1C	176 to 177 °C
COc1cn(-c2ccc(-n3nccc3OC(F)F)cc2F)nc(-c2ccnn2-c2ccccc2)c1=O	177 to 179 °C
CC(C#CC1=C(C)C(=O)C(O)CC1(C)C)=CCO (centres undefined)	84 to 86 °C
Cn1nc(O)c(Cl)c1C(F)(F)F	136 to 140 °C
Cc1nc(N2CCNCC2)c2nc(-c3ccccc3)cc-2[nH]1	236 °C
Cn1cnc2nc(-c3ccc(Cl)cn3)nn2c1=S	> 300 °C
Cc1nn(C)c2c(O)nc(C3CC3)nc12	238 to 240 °C
c1ccc(Oc2ccc(N3CCNCC3)nc2)cc1	80.5 to 83 °C
CCc1nc(/C=C/c2cn(-c3ccccc3)nc2O)co1	157 to 159 °C
N#Cc1ccc2c(c1)COC2c1ccc(F)cc1 (centres undefined)	96 to 98 °C
CS(=O)(=O)c1ccc(-c2cc(C(=O)CCCO[N+](=O)[O-])nn2-c2ccc(Br)cc2)cc1	150 to 152 °C
Clc1ncnc2c1ncn2C1CCCCO1 (centres undefined)	70 to 71 °C
O=C1CC(c2ccccc2)c2cc(Br)ccc2O1 (centres undefined)	117 °C
CC1(C)C=C(c2ccccn2)c2cc(C(F)(F)F)ccc2OC1	90 °C

SMILES	melting point
Cn1c(=O)n(OCc2ccccc2)c(=O)c2cc(F)c(F)cc21	167 to 169 °C
O=C(O)c1cnc2cc(C(F)(F)F)ccc2c1Cl	310 °C
CCOC(=O)c1cnc(O)nc1Cc1ccccc1	57 to 61 °C
CCCCCCc1cc2c(s1)-n1c(C)nnc1CN=C2c1cccc(C)c1	57 to 59 °C
CN(C(=O)C(C)(C)N1C(=O)c2ccccc2C1=O)C(c1ccc(F)cc1)c1ccc(F)cc1	169 to 171 °C
NNc1nccc2nc(-c3ccccc3)nn12	216 to 218 °C
CC(=O)N1CC2CC2(c2ccccc2)C1 (centres undefined)	63 to 65 °C
CC(C)(C)c1cc(C(=O)Nc2cccnc2NC(=O)NC23CC4CC(CC(C4)C2)C3)cc(C(C)(C)C)c1O	198 to 202 °C
O=c1[nH]c2cscc2c(=O)n1CCCCN1CCN(c2cccc(C(F)(F)F)c2)CC1	126 to 128 °C
CCc1[nH]n(C2CCCC2)c2nc(Cc3ccc(C(F)(F)F)cc3)nc(=O)c1-2	212 to 213 °C
CCCCCN1C(=O)C(CO)(c2cc3c(cc2O)OCO3)c2ccccc21 (centres undefined)	125 to 127 °C
CC(=O)NC[C@H]1CN(c2ccc3c(c2)OCCCC3=O)C(=O)O1	123 to 128 °C
COc1ccc(-c2oc(C(F)(F)F)nc2-c2ccc(S(N)(=O)=O)cc2)cc1F	150 to 151 °C
Nc1nc(C(=O)O)c(-c2ccncc2)s1	211 °C
O=C(c1ccc(Cl)cc1)c1ccc(CBr)cc1	103 to 104 °C
CCC(C)(C)N=C(NC#N)Nc1cc(Br)cc(Br)c1	168 to 170 °C
O=C(Nc1nnco1)C(c1ccccc1)c1ccccc1	131 to 132 °C
COc1cc2c(c(Cl)c1Cl)CCCC2	67 to 68.5 °C
Cc1cc(CCCOc2c(C)cc(-c3noc(C(N)=O)n3)cc2C)on1	177 to 178 °C
CCCCOc1c(NC(C)C(C)(C)C)c(=O)c1=O (centres undefined)	90 to 99 °C
N#Cc1cc(-c2ccncn2)c[nH]c1=O	> 250 °C
Cc1noc(NS(=O)(=O)c2ccccc2-c2ccc(-c3ncco3)cc2CN(C)C(=O)c2cc3ccccc3[nH]2)c1C	135 to 145 °C

The next lines start with the values.

melting point	SMILES
199 to 202 °C	CCCCCCCCCCCCCCCCNc1ccc(C(=O)NC(C)(C)C(=O)O)cc1
184 to 186 °C	COc1ccc(C(O)(C(F)(F)F)C(F)(F)F)cc1C=CC(=O)O
57 to 60 °C	CCCCCCCCCCCCCCCCCCOc1cc(C(=O)OC)cc(C(=O)N(CC(=O)OCC)CC(=O)OCC)c1
247 to 248 °C	COC(=O)Nc1cn2cc(S(=O)c3ccccc3)ccc2n1 (centres undefined)
183 to 185 °C	COc1ccc(C#N)cc1/C=C/C(=O)Sc1nc2ccccc2s1
105 to 106 °C	COc1ccc(C2OCc3ccccc3O2)cc1O (centres undefined)
165 to 167 °C	COc1cc(CC(C#N)=CNc2ccccc2)cc(OC)c1NC(C)=O
148 to 149 °C	O=C(ON=C1C(=O)c2ccccc2-c2ccccc21)c1ccccc1
150 °C	COC(=O)C1CC(C#N)(c2ccc(OC)c3oc(C(C)C)nc23)CCC1=O (centres undefined)
102 to 104 °C	CNC(=O)N(O)C(C)c1ccc(OC)cc1 (centres undefined)
175 °C	CN(C(=S)N[C@@H](Cc1ccc(NC(=O)c2c(Cl)cncc2Cl)cc1)C(=O)O)c1ccccc1C(=O)NCC1CCCCC1
231 to 232 °C	CC(=O)N(C(C)=O)c1c(I)c(C(=O)Cl)c(I)c(N(C(C)=O)C(C)=O)c1I
106 to 107 °C	CCCOc1ccc(CC(C)=O)cc1S(N)(=O)=O
232 to 233 °C	COC(=O)c1c(C)nc(C)c(C(=O)O)c1-c1ccccc1[N+](=O)[O-]
206 to 208 °C	CCOC(=O)C1=C(CS(=O)c2ccccc2)Nc2ccnc(OC(C)C)c2C1c1ccccc1C(F)(F)F (centres undefined)
143 to 145 °C	CSc1ccc(C=CC(=O)C=Cc2ccc(SC)cc2)cc1
134 to 136 °C	Cc1cc(NC(=S)NC(=O)c2ccccc2Cl)ccc1-n1cccc1
210 to 214 °C	O=C(O)CCC(Cc1ccccc1Br)(C(=O)C=Cc1ccc(Cl)cc1)c1ccccc1 (centres undefined)
248 to 249 °C	Nc1cc(C(=O)O)cc(OCc2ccc(Cl)cc2)c1C(=O)c1ccccc1
208 to 211 °C	O=C(O)C(=Cc1cccnc1)c1ccc(Cl)cc1Cl
103 to 105 °C	COC(=O)c1ccccc1NCCCc1ccccc1
153 to 154 °C	Cc1nc(C(N)=O)n(COCc2ccccc2)c1Sc1ccccc1
> 260 °C	COC(=O)c1cccn1-c1cc2[nH]c(=O)c(=O)[nH]c2cc1Cl
161 to 163 °C	O=C(CCCCCNC(=O)Nc1cn2c3c(cccc13)CCC2)NO
168 to 170 °C	CN(C)N=Nc1ccsc1C(N)=O
162 °C	COC(=O)C(C(=O)OC)N(C(N)=O)c1ccc(C=NO)cc1
81 to 83 °C	O=C(OC1CCCCC1=O)c1ccccc1 (centres undefined)
158 to 162 °C	CNS(=O)(=O)CC(=O)C=C(C)N
165 to 167 °C	COc1ccc(C2=NN(c3ccc(CC(=O)N4CCOCC4)cc3)C(=O)C(C)(C)C2)cc1OC
132 to 133 °C	C=C[C@H]1CC(C(=O)OC)=C[C@@H](OC(C)C)[C@@H]1NC(C)=O
